Experimental data as given in PubChem BioAssay (NCI).
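Cultured in 96-well plates, cells were exposed to test compound for 48 hours across five concentrations. TGI: total growth inhibition.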

How the values were obtained:
Test in all cases: growth of human tumour cells (NCI), 48 h
SW-620 colon = test system: SW-620 colon
HS 578T breast = test system: HS 578T breast
MDA-N = test system: MDA-N
NCI-H226 lung = test system: NCI-H226 lung
COLO 205 colon = test system: COLO 205 colon
HL-60(TB) leukemia = test system: HL-60(TB) leukemia
HCT-15 colon = test system: HCT-15 colon
UACC-257 melanoma = test system: UACC-257 melanoma
TK-10 renal = test system: TK-10 renal
SNB-75 CNS = test system: SNB-75 CNS
UO-31 renal = test system: UO-31 renal
KM12 colon = test system: KM12 colon
U251 CNS = test system: U251 CNS
HOP-92 NSCLC = test system: HOP-92 NSCLC
EKVX NSCLC = test system: EKVX NSCLC
SNB-19 CNS = test system: SNB-19 CNS
MDA-MB-435 = test system: MDA-MB-435
XF 498 CNS = test system: XF 498 CNS
DMS 273 small cell lung = test system: DMS 273 small cell lung
HOP-18 NSCLC = test system: HOP-18 NSCLC

SMILES	TGI (SW-620 colon) [µM]	TGI (HS 578T breast) [µM]	TGI (MDA-N) [µM]	TGI (NCI-H226 lung) [µM]	TGI (COLO 205 colon) [µM]	TGI (HL-60(TB) leukemia) [µM]	TGI (HCT-15 colon) [µM]	TGI (UACC-257 melanoma) [µM]	TGI (TK-10 renal) [µM]	TGI (SNB-75 CNS) [µM]	TGI (UO-31 renal) [µM]	TGI (KM12 colon) [µM]	TGI (U251 CNS) [µM]	TGI (HOP-92 NSCLC) [µM]	TGI (EKVX NSCLC) [µM]	TGI (SNB-19 CNS) [µM]	TGI (MDA-MB-435) [µM]	TGI (XF 498 CNS) [µM]	TGI (DMS 273 small cell lung) [µM]	TGI (HOP-18 NSCLC) [µM]
C=C(C)[C@@H]1CCC2=C[C@H](CC(C)=CC3=CC(C)=C(O3)[C@@H]1OC)OC2=O	> 100	> 100	> 100	> 100	> 100	> 100	> 100	> 100	> 100	> 100	> 100	> 100	> 100	> 100	> 100	> 100	> 100	–	–	–
O=c1c2ccccc2[nH]c2cc(O)cc(O)c12	–	–	–	> 100	–	> 100	> 100	> 100	> 100	> 100	> 100	> 100	> 100	–	–	> 100	–	> 100	> 100	> 100
CCSc1nc(N)c2c(-c3ccccc3)c3c(nc2n1)CCC3	> 100	> 100	> 100	–	> 100	> 100	> 100	> 100	> 100	> 100	9.02	> 100	> 100	–	> 100	> 100	> 100	–	–	–
CC(=O)O[C@H]1[C@@H](OC(C)=O)C(C)(C)/C=C/[C@H](C)C(=O)[C@@]2(OC(C)=O)C[C@@](C)(OC(C)=O)[C@H](OC(C)=O)[C@@H]2[C@H]2OC(=O)CC[C@@]2(OC(=O)c2ccccc2)[C@@H]1OCC(C)C	> 100	65.4	> 100	> 100	> 100	> 100	> 100	> 100	> 100	66.2	> 100	> 100	> 100	> 100	> 100	> 100	> 100	–	–	–
CSCCC(NC(=O)OCc1ccccc1)NC(=O)OCc1ccccc1	> 100	> 100	> 100	> 100	> 100	–	> 100	> 100	> 100	> 100	> 100	–	> 100	> 100	–	> 100	> 100	–	–	–
